Data as given in publication PMC12040169 (PLOS Biology, 2025).

test: in vitro; conditions: human, hela cells, % viability

| SMILES | viability at 28.5 h, 10 µM [%] |
| --- | --- |
| CN(C)CCNC(=O)c1cccc(-c2cncc(N3CCN(c4ccncc4)CC3)n2)c1 [CBK065391] | 100 |
| CCCC/C=C/c1cncc(N2CCCC2CO)n1 (centres unmarked) [CBK065402] | 91.8 |
| CC(=O)Nc1cccc(-c2cncc(NC3CCC(O)CC3)n2)c1 (centres unmarked) [CBK065404] | 88.6 |
| CN(C)CCN1CCN(c2cncc(-c3cccnc3)n2)CC1 [CBK065416] | 93.2 |
| COc1cc(CNc2cncc(-c3cccc(C(=O)NCCO)c3)n2)cc(OC)c1OC [CBK065421] | 98.5 |
| CC(C)[C@@H](CO)Nc1cncc(-c2cccc(CO)c2)n1 [CBK065427] | 95.2 |
| OCC1CCCN1c1cncc(-c2cccnc2)n1 (centres unmarked) [CBK065439] | 100 |
| CCCNc1cncc(-c2cccc(F)c2)n1 [CBK065441] | 97.3 |
| OCc1cccc(-c2cncc(NC3CCC(O)CC3)n2)c1 (centres unmarked) [CBK065448] | 102 |
| OC1CCC(Nc2cncc(-c3cccc(F)c3)n2)CC1 (centres unmarked) [CBK065449] | 97.8 |
| OC1CCC(Nc2cncc(-c3ccc4ccccc4c3)n2)CC1 (centres unmarked) [CBK065463] | 91.7 |
| CC(C)[C@@H](CO)Nc1cncc(-c2cccnc2)n1 [CBK065467] | 98.5 |
| CCCC/C=C/c1cncc(N[C@@H](C)c2ccccc2)n1 [CBK065472] | 109 |
| COc1cc(CNc2cncc(-c3ccc(N)cc3)n2)cc(OC)c1OC [CBK065483] | 96.5 |
| CC(CCCC(C)(C)O)Nc1cncc(-c2cccc(C(=O)O)c2)n1 (centres unmarked) [CBK065489] | 103 |
| CC(C)[C@H](CO)Nc1cncc(-c2cccc3ccccc23)n1 [CBK065501] | 85.9 |
| COc1ccc(C(C)C)cc1-c1cncc(N[C@@H](C)c2ccccc2)n1 [CBK065504] | 115 |
| c1ccc(CCNc2cncc(-c3cccs3)n2)nc1 [CBK065510] | 98.2 |
| O=C(c1ccco1)N1CCN(c2cncc(-c3cccs3)n2)CC1 [CBK065518] | 114 |

| SMILES | viability at 28.5 h, 10 µM [%] |
| --- | --- |
| C[C@H](Nc1cncc(-c2ccccc2CO)n1)c1ccccc1 [CBK065520] | 116 |
| CC(CCCC(C)(C)O)Nc1cncc(-c2ccccc2CO)n1 (centres unmarked) [CBK065529] | 96.3 |
| CCC(CO)Nc1cncc(-c2cccs2)n1 (centres unmarked) [CBK065534] | 110 |
| COc1ccc(C(C)C)cc1-c1cncc(N[C@H](C)c2ccccc2)n1 [CBK065535] | 105 |
| COc1cncc(-c2cncc(N[C@H](C)c3ccccc3)n2)c1 [CBK065537] | 98.9 |
| CN1CCCN(c2cncc(-c3cccs3)n2)CC1 [CBK065542] | 101 |
| CC(C)[C@H](CO)Nc1cncc(-c2cccc(N(C)C)c2)n1 [CBK065547] | 81.9 |
| CN(C)c1cccc(-c2cncc(NCc3ccco3)n2)c1 [CBK065555] | 106 |
| CC(C)[C@@H](CO)Nc1cncc(-c2cccc3ccccc23)n1 [CBK065566] | 98.4 |
| CCC(CO)Nc1cncc(-c2cccc(/C=C/C(=O)O)c2)n1 (centres unmarked) [CBK065569] | 114 |
| c1coc(CNc2cncc(-c3cccc4ccccc34)n2)c1 [CBK065573] | 115 |
| c1csc(-c2cncc(NCc3ccncc3)n2)c1 [CBK065583] | 94.6 |
| CC(=O)Nc1ccc(-c2cncc(NCCCO)n2)cc1 [CBK065598] | 103 |
| CC(C)(CO)CNc1cncc(-c2cccs2)n1 [CBK065599] | 88.3 |
| c1csc(-c2cncc(NCCCN3CCOCC3)n2)c1 [CBK065623] | 102 |
| c1coc(CNc2cncc(-c3cccs3)n2)c1 [CBK065630] | 96.6 |
| CN(C)c1cccc(-c2cncc(NCCCN3CCOCC3)n2)c1 [CBK065635] | 94.8 |
| C[C@@H](Nc1cncc(-c2cccc3ccccc23)n1)c1ccccc1 [CBK065646] | 93.4 |
| CN(C)CCN(C)c1cncc(-c2ccc(F)cc2F)n1 [CBK065652] | 90.9 |
